target: T1, human chemokine receptor 2 isoform B (Homo sapiens, UniProt P41597); assay: Calcium mobilization assay (FLIPR, antagonist activity against MCP-1); format: cell-based; conditions: Ca mobilisation assay, CHOK1-CCR2B-A5 cells, inhibition of calcium increase induced by 20 nM MCP-1
T1 construct: host or cells: CHOK1-CCR2B-A5 cells (CHO-K1)
T1 sequence (P41597 1-360 isoform P41597-2): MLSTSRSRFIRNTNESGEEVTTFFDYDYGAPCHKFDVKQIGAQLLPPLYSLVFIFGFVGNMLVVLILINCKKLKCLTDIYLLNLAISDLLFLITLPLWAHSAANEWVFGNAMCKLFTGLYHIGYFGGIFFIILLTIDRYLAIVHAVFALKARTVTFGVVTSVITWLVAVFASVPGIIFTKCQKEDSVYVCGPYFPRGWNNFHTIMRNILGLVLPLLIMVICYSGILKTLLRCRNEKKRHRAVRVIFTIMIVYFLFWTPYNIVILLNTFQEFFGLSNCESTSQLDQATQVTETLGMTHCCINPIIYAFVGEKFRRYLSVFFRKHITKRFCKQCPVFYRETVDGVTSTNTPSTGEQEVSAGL
In short: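 CHOK1 cells stably overexpressing human CCR2B, loaded with 4 μM Fluo-4 for 2 h at 30° C, compounds added and agonist signal read by FLIPR for 80 s. After 20-30 min at 30° C, 20 nM MCP-1 was added and fluorescence read again. IC50 is 50% inhibition of specific calcium increase (max minus basal).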

Q: `C[C@H]1C(=O)N(CCCC(=O)N2CCCC(O)C2)CCN1C(=O)Nc1cccc(Cl)c1` (mixture of isomers) [Example 112, (S)-4-[4-((RS)-3-Hydroxy-piperidin-1-yl)-4-oxo-butyl]-2-methyl-3-oxo-piperazine-1-carboxylic acid (3-chloro-phenyl)-amide] was tested. Which IC50 did it give?
A: Its IC50 is 3200 nM.

Q: For `C[C@H]1C(=O)N(CCCC(=O)N2CCC3(CC2)COC3)CCN1C(=O)Nc1cccc(Cl)c1` [Example 36, (S)-2-Methyl-4-[4-(2-oxa-7-aza-spiro[3.5]non-7-yl)-4-oxo-butyl]-3-oxo-piperazine-1-carboxylic acid (3-chloro-phenyl)-amide], which IC50 is on record?
A: The IC50 was 2340 nM.

Q: `C[C@H]1C(=O)N(CCCC(=O)N2CCC3(CC3)[C@H](O)C2)CCN1C(=O)Nc1ccc(Cl)c(C(F)(F)F)c1` [Example 32, (S)-4-[4-((S)-4-Hydroxy-6-aza-spiro[2.5]oct-6-yl)-4-oxo-butyl]-2-methyl-3-oxo-piperazine-1-carboxylic acid (4-chloro-3-trifluoromethyl-phenyl)-amide] was tested. Which IC50 did it give?
A: The IC50 was 5.9 nM.

Q: How did the IC50 turn out when `CC1(CO)CCN(C(=O)CN2CCN(C(=O)/C=C/c3ccc(Cl)c(Cl)c3)CCC2=O)CC1` [Example 99, 1-[(E)-3-(3,4-Dichloro-phenyl)-acryloyl]-4-[2-(4-hydroxymethyl-4-methyl-piperidin-1-yl)-2-oxo-ethyl]-[1,4]diazepan-5-one] was run?
A: Its IC50 is 4960 nM.

Q: For `C[C@H]1C(=O)N(CCCC(=O)N2CCC3(CC3)[C@H](O)C2)CCN1c1ccc(C(F)(F)F)c(Cl)c1` [Example 60, (S)-4-(3-chloro-4-trifluoromethyl-phenyl)-1-[4-((S)-4-hydroxy-6-aza-spiro[2.5]oct-6-yl)-4-oxo-butyl]-3-methyl-piperazin-2-one], which IC50 is on record?
A: Its IC50 is 5 nM.

Q: Which IC50 does the source give for `C[C@H]1C(=O)N([C@@H](CCC(=O)N2CCC3(CC3)[C@H](O)C2)C(=O)O)CCN1C(=O)Nc1ccc(OC(F)(F)F)c(Cl)c1` [Example 56, Lithium; (S)-2-[(S)-4-(3-chloro-4-trifluoromethoxy-phenylcarbamoyl)-3-methyl-2-oxo-piperazin-1-yl]-5-((S)-4-hydroxy-6-aza-spiro[2.5]oct-6-yl)-5-oxo-pentanoate] here?
A: The IC50 was 387 nM.

Q: `C[C@H]1C(=O)N([C@H](CO)CCC(=O)N2CCC3(CC3)[C@H](O)C2)CCN1C(=O)Nc1ccc(OC(F)(F)F)c(Cl)c1` [Example 55, (S)-4-[(S)-4-((S)-4-Hydroxy-6-aza-spiro[2.5]oct-6-yl)-1-hydroxymethyl-4-oxo-butyl]-2-methyl-3-oxo-piperazine-1-carboxylic acid (3-chloro-4-trifluoromethoxy-phenyl)-amide] was tested. Which IC50 did it give?
A: Its IC50 is 1.8 nM.

Q: `O=C(/C=C/c1ccc(Cl)c(Cl)c1)N1CCC(=O)N(CCC(=O)N2CCC3(CCCO3)CC2)CC1` [Example 86, 1-[(E)-3-(3,4-Dichloro-phenyl)-acryloyl]-4-[3-(1-oxa-8-aza-spiro[4.5]dec-8-yl)-3-oxo-propyl]-[1,4]diazepan-5-one] was tested. Which IC50 did it give?
A: Its IC50 is 326 nM.

Q: How did the IC50 turn out when `C[C@@H]1CN(CCC(=O)N2CCC(C)(O)CC2)C(=O)CCN1C(=O)/C=C/c1cccc(Cl)c1` [Example 102, (R)-1-[(E)-3-(3-Chloro-phenyl)-acryloyl]-4-[3-(4-hydroxy-4-methyl-piperidin-1-yl)-3-oxo-propyl]-2-methyl-[1,4]diazepan-5-one] was run?
A: Its IC50 is 152 nM.

Q: With `O=C(/C=C/c1ccc(Cl)c(Cl)c1)N1CCC(=O)N(CC(=O)N2CCCCC2)CC1` [Example 95, 1-[(E)-3-(3,4-Dichloro-phenyl)-acryloyl]-4-(2-oxo-2-piperidin-1-yl-ethyl)-[1,4]diazepan-5-one] as the molecule, how does the IC50 read?
A: Its IC50 is 150 nM.

Q: Which IC50 does the source give for `C[C@H]1C(=O)N(CCC(C)(C)C(=O)N2CCC3(CC3)[C@H](O)C2)CCN1C(=O)Nc1ccc(OC(F)(F)F)c(Cl)c1` [Example 51, (S)-4-[4-((S)-4-Hydroxy-6-aza-spiro[2.5]oct-6-yl)-3,3-dimethyl-4-oxo-butyl]-2-methyl-3-oxo-piperazine-1-carboxylic acid (3-chloro-4-trifluoromethoxy-phenyl)-amide] here?
A: The IC50 was 750 nM.

Q: How did the IC50 turn out when `O=C(/C=C/c1ccc(Cl)c(Cl)c1)N1CCC(=O)N(CCC(=O)N2CCC(O)(c3ccccn3)CC2)CC1` [Example 76, 1-[(E)-3-(3,4-Dichloro-phenyl)-acryloyl]-4-[3-(4'-hydroxy-3′,4′,5′,6′-tetrahydro-2′H-[2,4′]bipyridinyl-1′-yl)-3-oxo-propyl]-[1,4]diazepan-5-one] was run?
A: Its IC50 is 971 nM.

Q: Which IC50 does the source give for `CC1(O)CCN(C(=O)CCN2CCN(C(=O)/C=C/c3ccc(Cl)c(Cl)c3)CCC2=O)CC1` [Example 73, 1-[(E)-3-(3,4-Dichloro-phenyl)-acryloyl]-4-[3-(4-hydroxy-4-methyl-piperidin-1-yl)-3-oxo-propyl]-[1,4]diazepan-5-one] here?
A: Its IC50 is 65.9 nM.

Q: Which IC50 does the source give for `C[C@H]1C(=O)N(C[C@H](O)CC(=O)N2CCC3(CC3)[C@H](O)C2)CCN1C(=O)Nc1ccc(C(F)(F)F)c(Cl)c1` [Example 43, (S)-4-[(R)-2-Hydroxy-4-((S)-4-hydroxy-6-aza-spiro[2.5]oct-6-yl)-4-oxo-butyl]-2-methyl-3-oxo-piperazine-1-carboxylic acid (3-chloro-4-trifluoromethyl-phenyl)-amide] here?
A: Its IC50 is 4 nM.

Q: `C[C@H]1C(=O)N(CCCC(=O)N2CCC(CO)CC2)CCN1C(=O)Nc1cccc(Cl)c1` [Example 109, (S)-4-[4-(4-Hydroxymethyl-piperidin-1-yl)-4-oxo-butyl]-2-methyl-3-oxo-piperazine-1-carboxylic acid (3-chloro-phenyl)-amide] was tested. Which IC50 did it give?
A: The IC50 was 4650 nM.

Q: With `C[C@H]1C(=O)N(CCCC(=O)N2CCC3(CC3)[C@H](O)C2)[C@H](C(N)=O)CN1C(=O)Nc1ccc(C(F)(F)F)c(Cl)c1` [Example 147, (3S,6S)—N1-(3-chloro-4-(trifluoromethyl)phenyl)-4-(4-((S)-4-hydroxy-6-azaspiro[2.5]octan-6-yl)-4-oxobutyl)-6-methyl-5-oxopiperazine-1,3-dicarboxamide] as the molecule, how does the IC50 read?
A: The IC50 was 3.5 nM.

Q: Which IC50 does the source give for `C[C@H]1C(=O)N(C[C@H](O)CC(=O)N2CCC3(CC3)[C@H](O)C2)CCN1C(=O)Nc1ccc(OC(F)(F)F)c(Cl)c1` [Example 46, (S)-4-[(R)-2-hydroxy-4-((S)-4-hydroxy-6-aza-spiro[2.5]oct-6-yl)-4-oxo-butyl]-2-methyl-3-oxo-piperazine-1-carboxylic acid (3-chloro-4-trifluoromethoxy-phenyl)-amide] here?
A: The IC50 was 4.2 nM.

Q: How did the IC50 turn out when `O=C1NCC2(CCN(C(=O)CCN3CCN(C(=O)/C=C/c4ccc(Cl)c(Cl)c4)CCC3=O)CC2)O1` [Example 90, 8-(3-{4-[(E)-3-(3,4-Dichloro-phenyl)-acryloyl]-7-oxo-[1,4]diazepan-1-yl}-propionyl)-1-oxa-3,8-diaza-spiro[4.5]decan-2-one] was run?
A: The IC50 was 184 nM.

Q: For `O=C(/C=C/c1ccc(Cl)c(Cl)c1)N1CCC(=O)N(C(CO)CC(=O)N2CCCCC2)CC1` (racemic) [Example 6, rac-(1-[(E)-3-(3,4-Dichloro-phenyl)-acryloyl]-4-(1-hydroxymethyl-3-oxo-3-piperidin-1-yl-propyl)-[1,4]diazepan-5-one)], which IC50 is on record?
A: Its IC50 is 2020 nM.

Q: Which IC50 does the source give for `C[C@H]1C(=O)N(CCCC(=O)N2CCC3(CC3)[C@H](O)C2)CCN1C(=O)Nc1ccc(C(F)(F)F)c(Cl)c1` [Example 33, (S)-4-[4-((S)-4-Hydroxy-6-aza-spiro[2.5]oct-6-yl)-4-oxo-butyl]-2-methyl-3-oxo-piperazine-1-carboxylic acid (3-chloro-4-trifluoromethyl-phenyl)-amide] here?
A: The IC50 was 4.4 nM.
